Source: patent publication US20140315972A1, “RS)-2-(2-oxo-4-phenylpyrrolidin-1-yl)acetamide compound having modulatory activity with a commensurate effect, pharmaceutical substance (variants) and its application, composition (variants) thereof” (priority 2011, published 2014)
Marks after values point to notes of the source that are not given here.

System: mice
Experiment: Spontaneous tumors in mice at autopsy
Format: in vivo
Details: for spontaneous tumors, Number, in %: mice, untreated control = 100
Method: The maximum life span (MLS) of mice according to our long-term statistical observations is 2.7-3, 2 years, i.e. in average 2.95 years or 1077 days. For this study we selected mice (10 individuals per group), males with dominant behavior in mixed groups, that safely survived to 985 days without signs of pronounced senility and with satisfactory orientation-exploratory behavior, determined by the “open field test” method. Phenotropil in doses of 25, 50 and 100 mg/kg was administered orally with 5.0% glucose solution. Glucose solution was used solely to improve the solubility of the drug. One control group received the glucose solution and the second one—distilled water. The third control group was not treated.
The greatest effect (Table 18) was obtained after treatment with Phenotropil in doses of 25 mg/kg (23.3%) and 100 mg/kg (24.0%). […] With a sample of 30 individuals in total in the three groups, we can talk about a high reliability of the findings.

**Q.** What does the source list for `NC(=O)CN1CC(c2ccccc2)CC1=O` (racemic) [Compound 1, (RS)-2-(2-oxo-4-phenylpyrrolidine-1-yl)acetamide]?
**A.** incidence and severity of spontaneous tumors lower by (100 mg/kg): 2.37 times; spontaneous tumors, Number, in % (25 mg/kg + 5.0% glucose solution): 57.0* %; spontaneous tumors, Number, in % (50 mg/kg + 5.0% glucose solution): 74.5* %; spontaneous tumors, Number, in % (100 mg + 5.0% glucose solution): 42.2* %
